Results from patent US12054721B2, “Compositions and methods for 3-hydroxypropionic acid production” (CARGILL, INCORPORATED, priority 2010, dated 2024).

Tested on: yeast cells
Assay: EMS mutagenesis of yeast cells (kill rate)
Format: cell-based
Conditions: 3 μL EMS in 200 μL cell suspension (OD600 around 10), approximately one hour
Description: For example, yeast cells from a fresh YP (yeast extract/peptone)+20 g/L glucose plate or liquid culture (OD600 1-4) are resuspended in sterile water to an OD600 of around 10. 200 μL aliquots of this cell suspension are pipetted into individual tubes and exposed to 3 μL […] (EMS) for approximately one hour, which kills around 65% of the cells. Higher EMS concentrations can also be used to increase the kill rate. After exposure, cells are neutralized with 5% sodium thiosulfate, washed in PBS buffer, recovered in rich media for approximately four hours, and cultured on selective media. Mock samples (no EMS) are also run to ensure that the conditions are selective. Alternatively, cells can be mutagenized using UV irradiation.

Q: For `CCOS(C)(=O)=O` [ethane methyl sulfonate (EMS), ethane methyl sulfonate], which cells killed is on record?
A: around 65%
